Data reported in US20240327364A1, “THERAPEUTIC TARGETING OF GPR68 TO INDUCE FERROPTOSIS” (University Of Maryland, Baltimore, priority 2023, published 2024).
Like-named read-outs stand apart in the source and are kept apart here.

Legend:
S6K1 = target: T1, S6K1 (Homo sapiens, UniProt P23443); experiment: KinomeScan; type: binding; details: read-out: % Control
T1 construct: purchased DiscoveRx (Fremont, CA)

FGFR4 = target: T2, FGFR4 (Homo sapiens, UniProt P22455); experiment: KinomeScan; type: binding; details: read-out: % Control
T2 construct: purchased DiscoveRx (Fremont, CA)

LZK = target: T3, LZK (Homo sapiens, UniProt O43283); experiment: KinomeScan; type: binding; details: read-out: % Control
T3 construct: purchased DiscoveRx

INK2 = target: T4, INK2 (Homo sapiens, UniProt P45984); experiment: KinomeScan; type: binding; details: read-out: % Control
T4 construct: purchased DiscoveRx

PIK4CB = target: T5, PIK4CB (Homo sapiens, UniProt Q9UBF8); experiment: KinomeScan; type: binding; details: read-out: % Control
T5 construct: purchased DiscoveRx (Fremont, CA)

CAMK2D = target: T6, CAMK2D (Homo sapiens, UniProt Q13557); experiment: KinomeScan; type: binding; details: read-out: % Control
T6 construct: purchased DiscoveRx (KinomeScan service)
T6 sequence (Q13557 whole entry): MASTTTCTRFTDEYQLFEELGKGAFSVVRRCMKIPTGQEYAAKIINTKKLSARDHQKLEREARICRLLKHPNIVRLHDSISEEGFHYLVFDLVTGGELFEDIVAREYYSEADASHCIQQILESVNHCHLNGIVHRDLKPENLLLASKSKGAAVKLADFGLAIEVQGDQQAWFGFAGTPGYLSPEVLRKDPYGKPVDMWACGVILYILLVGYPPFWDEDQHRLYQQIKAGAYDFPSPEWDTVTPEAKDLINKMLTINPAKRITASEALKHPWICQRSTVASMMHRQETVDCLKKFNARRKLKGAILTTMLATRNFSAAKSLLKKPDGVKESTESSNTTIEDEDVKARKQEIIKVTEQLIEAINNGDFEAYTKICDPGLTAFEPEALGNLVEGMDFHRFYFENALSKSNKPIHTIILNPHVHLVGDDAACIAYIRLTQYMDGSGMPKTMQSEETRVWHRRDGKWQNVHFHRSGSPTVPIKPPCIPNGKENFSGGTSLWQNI

CSNK1A1L = CSNK1A1L (Homo sapiens, UniProt Q8N752); experiment: KinomeScan; type: binding; details: read-out: % Control
PAK4 = target: T7, PAK4 (Homo sapiens, UniProt O96013); experiment: KinomeScan; type: binding; details: read-out: % Control
T7 construct: purchased DiscoveRx

PDPK1 = target: T8, PDPK1 (Homo sapiens, UniProt O15530); experiment: KinomeScan; type: binding; details: read-out: % Control
T8 construct: purchased DiscoveRx (Fremont, CA)
T8 sequence (O15530 whole entry): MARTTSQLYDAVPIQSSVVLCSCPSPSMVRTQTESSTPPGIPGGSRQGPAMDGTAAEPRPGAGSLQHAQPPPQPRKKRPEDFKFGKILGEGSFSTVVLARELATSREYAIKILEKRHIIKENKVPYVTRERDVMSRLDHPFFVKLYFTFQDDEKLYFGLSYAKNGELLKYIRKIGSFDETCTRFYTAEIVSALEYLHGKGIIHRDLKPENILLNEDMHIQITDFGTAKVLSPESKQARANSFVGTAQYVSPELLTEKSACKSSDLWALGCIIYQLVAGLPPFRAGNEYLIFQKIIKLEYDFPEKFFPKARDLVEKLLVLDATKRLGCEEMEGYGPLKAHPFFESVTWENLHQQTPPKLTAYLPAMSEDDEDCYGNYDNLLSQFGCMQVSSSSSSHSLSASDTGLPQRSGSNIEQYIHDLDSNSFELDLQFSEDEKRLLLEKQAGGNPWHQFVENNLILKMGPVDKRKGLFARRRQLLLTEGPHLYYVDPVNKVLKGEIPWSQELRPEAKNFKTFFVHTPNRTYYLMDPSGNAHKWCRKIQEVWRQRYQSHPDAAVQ

IKK-alpha = target: T9, IKK-alpha (Homo sapiens, UniProt O15111); experiment: KinomeScan; type: binding; details: read-out: % Control
T9 construct: purchased DiscoveRx (Fremont, CA)
T9 sequence (O15111 whole entry): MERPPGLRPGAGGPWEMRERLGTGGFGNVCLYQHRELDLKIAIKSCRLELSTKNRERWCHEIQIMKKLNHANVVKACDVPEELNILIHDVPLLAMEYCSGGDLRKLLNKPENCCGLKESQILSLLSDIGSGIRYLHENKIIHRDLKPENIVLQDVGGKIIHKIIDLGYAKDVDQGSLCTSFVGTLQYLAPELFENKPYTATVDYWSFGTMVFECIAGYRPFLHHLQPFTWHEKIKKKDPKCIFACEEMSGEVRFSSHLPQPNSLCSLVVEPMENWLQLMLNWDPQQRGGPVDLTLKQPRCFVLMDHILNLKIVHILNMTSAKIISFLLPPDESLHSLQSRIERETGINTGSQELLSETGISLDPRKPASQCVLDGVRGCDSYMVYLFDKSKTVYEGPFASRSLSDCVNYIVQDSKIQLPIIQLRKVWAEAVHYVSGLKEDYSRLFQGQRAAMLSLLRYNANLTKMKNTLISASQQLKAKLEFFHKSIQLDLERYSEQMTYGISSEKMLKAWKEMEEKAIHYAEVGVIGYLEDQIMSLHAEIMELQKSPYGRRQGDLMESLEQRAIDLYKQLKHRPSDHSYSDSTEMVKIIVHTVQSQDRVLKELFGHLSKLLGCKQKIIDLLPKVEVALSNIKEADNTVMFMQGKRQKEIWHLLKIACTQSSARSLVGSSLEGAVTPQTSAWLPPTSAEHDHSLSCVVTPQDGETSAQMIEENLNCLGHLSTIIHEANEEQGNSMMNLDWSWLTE

H1 = target: T10, H1 (Homo sapiens, UniProt P35367); experiment: GPCR Profiler; type: cell-based
T10 construct: host or cells: Chem-1 cells with promiscuous Gα15
T10 sequence (P35367 whole entry): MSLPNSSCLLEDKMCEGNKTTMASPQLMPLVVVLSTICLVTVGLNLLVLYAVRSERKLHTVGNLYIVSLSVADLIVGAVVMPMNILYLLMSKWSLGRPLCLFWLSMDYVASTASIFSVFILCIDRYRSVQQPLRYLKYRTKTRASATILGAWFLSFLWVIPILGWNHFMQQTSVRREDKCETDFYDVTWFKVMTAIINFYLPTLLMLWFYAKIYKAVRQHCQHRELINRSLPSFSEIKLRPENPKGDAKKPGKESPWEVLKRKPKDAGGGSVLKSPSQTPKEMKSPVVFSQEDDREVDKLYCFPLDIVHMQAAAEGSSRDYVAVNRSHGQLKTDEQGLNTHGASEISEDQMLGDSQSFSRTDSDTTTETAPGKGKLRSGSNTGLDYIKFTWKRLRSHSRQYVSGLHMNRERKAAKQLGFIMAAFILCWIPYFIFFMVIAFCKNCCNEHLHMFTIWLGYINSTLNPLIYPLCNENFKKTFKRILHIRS

MLCK = target: T11, MLCK (Homo sapiens, UniProt Q32MK0); experiment: KinomeScan; type: binding; details: read-out: % Control
T11 construct: purchased DiscoveRx

V1A = target: T12, V1A (Homo sapiens, UniProt P37288); experiment: GPCR Profiler; type: cell-based
T12 construct: host or cells: Chem-1 cells with Gα15
T12 sequence (P37288 whole entry): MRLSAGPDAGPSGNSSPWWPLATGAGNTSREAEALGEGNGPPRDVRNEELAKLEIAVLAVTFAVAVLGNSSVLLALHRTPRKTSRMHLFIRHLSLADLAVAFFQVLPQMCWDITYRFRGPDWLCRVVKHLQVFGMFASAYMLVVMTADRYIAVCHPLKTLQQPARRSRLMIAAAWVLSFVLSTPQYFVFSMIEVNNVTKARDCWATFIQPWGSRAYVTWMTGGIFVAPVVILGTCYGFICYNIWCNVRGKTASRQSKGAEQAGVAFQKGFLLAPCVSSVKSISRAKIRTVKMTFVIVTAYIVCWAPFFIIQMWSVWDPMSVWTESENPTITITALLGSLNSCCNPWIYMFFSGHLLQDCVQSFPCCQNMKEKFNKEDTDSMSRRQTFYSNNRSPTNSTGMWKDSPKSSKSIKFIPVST

MKNK2 = target: T13, MKNK2 (Homo sapiens, UniProt Q9HBH9); experiment: KinomeScan; type: binding; details: read-out: % Control
T13 construct: purchased DiscoveRx
T13 sequence (Q9HBH9 whole entry): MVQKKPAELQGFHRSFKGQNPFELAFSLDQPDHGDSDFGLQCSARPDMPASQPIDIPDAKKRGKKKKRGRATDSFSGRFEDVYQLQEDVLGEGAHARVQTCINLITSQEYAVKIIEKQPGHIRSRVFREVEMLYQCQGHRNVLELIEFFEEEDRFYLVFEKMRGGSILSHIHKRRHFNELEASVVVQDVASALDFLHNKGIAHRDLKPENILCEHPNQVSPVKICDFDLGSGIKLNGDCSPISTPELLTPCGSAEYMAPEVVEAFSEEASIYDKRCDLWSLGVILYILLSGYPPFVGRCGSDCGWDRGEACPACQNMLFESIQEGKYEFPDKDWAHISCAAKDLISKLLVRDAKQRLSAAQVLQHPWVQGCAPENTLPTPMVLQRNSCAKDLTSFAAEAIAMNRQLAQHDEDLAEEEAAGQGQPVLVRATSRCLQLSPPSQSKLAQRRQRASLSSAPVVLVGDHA

[1] = tested on: human pulmonary artery endothelial cells (HPAECs); experiment: Cyclic stretch-triggered endothelial cell activation; type: cell-based; details: for Rho activation by 18% cyclic stretch: OGM2 at 5 μM, OGM1 at 3 μM, Rho-GTP pulldown
Experimental: FIG. 33A through FIG. 33D: Cyclic stretch-triggered endothelial cell (EC) activation is abolished by OGM2 and OGM1. FIG. 33A: In human pulmonary artery endothelial cells (HPAECs), pretreatment with OGMs (OGM2 at 5 μM and OGM1 at 3 μM) abolished Rho activation by 18% cyclic stretch (18% CS), as determined by Rho-GTP pulldown assay. ST, static condition. FIG. 33B: Treatment with OGM2 or OGM1 blocked CS-triggered activation of myosin phosphatase target (MYPT) and myosin light chain (MLC) in ECs, as determined by their phosphorylation MYPT and MLC. FIG. 33C: OGM2 or OGM1 blocked CS-induced TNF-α mRNA expression in ECs. n=3, ^#P<0.05 versus ST, *P<0.05 versus 18% CS. Error bars, standard deviation. FIG. 33D: OGM2 and OGM1 blocked CS-induced VCAM-1 expression in ECs. Here, OGM=OGM2.

GPR68/OGR1 = target: T14, GPR68/OGR1 (Homo sapiens, UniProt Q15743); experiment: CHEM1-OGR1 cells Fluo-8 calcium assay, acidified media pH 6.4; type: cell-based
T14 construct: host or cells: Chem-1 (CHEM1-OGR1) cells
T14 sequence (Q15743 whole entry): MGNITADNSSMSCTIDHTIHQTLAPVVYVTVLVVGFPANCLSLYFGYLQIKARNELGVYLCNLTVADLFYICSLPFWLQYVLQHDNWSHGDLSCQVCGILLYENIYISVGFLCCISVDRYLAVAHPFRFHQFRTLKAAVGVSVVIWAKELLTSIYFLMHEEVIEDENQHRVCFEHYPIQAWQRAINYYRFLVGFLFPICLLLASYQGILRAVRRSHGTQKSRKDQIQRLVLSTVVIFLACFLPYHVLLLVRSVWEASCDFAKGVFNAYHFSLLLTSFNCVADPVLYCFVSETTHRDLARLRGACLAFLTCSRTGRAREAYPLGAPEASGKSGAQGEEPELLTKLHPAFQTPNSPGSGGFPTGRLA
Experimental: Briefly, the methods were: On the day before the assay 20,000 cells per well of CHEM1-OGR1 cells were plated in 10% DMEM containing 10% FBS and 1% Pen/Strep into a 96 well plate. After 24 hours media was removed and cells were stained with 80 μL Fluo-8 calcium indicator dye according to manufacturer's protocol. After staining cells were treated with 20 uL of 4× concentration of test compounds. Using kinetic imaging in the Lionheart HCS fluorescence intensity was continuously measure at 10 frames per second, for 5 seconds before 100 μL of acidified media was added to the well resulting in a pH of 6.4. A ratio of fluorescence intensities prior to addition and at peak were calculated and averaged. The resulting data were platted and using a 4 parameter logistic regression EC50 (the concentration causing 50% effective inhibition) for each test compound was determined.

GPR68 = GPR68 (Homo sapiens, UniProt Q15743); experiment: Chem1-OGR1 cells washout (reversibility); type: cell-based; parameters: host or cells: Chem-1 cells (Chem1-OGR1); details: for reversibility of GPR68 inhibition: washout
Sequence of GPR68 (Q15743 whole entry): as above
Experimental: Chem1-GPR68 reporter cells were treated with 20 uM OM8345 for 2 hours and then rinsed with HBSS. […] The GPR68 inhibitory activity of OGM analogs segregated with the ability of the molecule to induce the phenotype in zebrafish.
Additional experiments, whereby OGM2 was resynthesized and used (due to its submicromolar potency and GPR68 specificity) were performed. See FIG. 6A (HNMR of resynthesis of OGM2) and FIG. 6B (LCMS of resynthesis of OGM2). To test the possibility of OGM2 being an irreversible inhibitor, Chem1-OGR1 cells (Millipore™) were incubated with 10 μM OGM2 for 4 hours, and after removing the compound stimulated with pH 6.4 medium. […] Time till 50% max ˜52 minutes. The signal returned back towards baseline uninhibited levels in a rapid and time-dependent manner.

CXCR5 = target: T15, CXCR5 (Homo sapiens, UniProt P32302); experiment: GPCR Profiler; type: cell-based
T15 construct: host or cells: Chem-1 cells with Gα15
T15 sequence (P32302 whole entry, species assumed): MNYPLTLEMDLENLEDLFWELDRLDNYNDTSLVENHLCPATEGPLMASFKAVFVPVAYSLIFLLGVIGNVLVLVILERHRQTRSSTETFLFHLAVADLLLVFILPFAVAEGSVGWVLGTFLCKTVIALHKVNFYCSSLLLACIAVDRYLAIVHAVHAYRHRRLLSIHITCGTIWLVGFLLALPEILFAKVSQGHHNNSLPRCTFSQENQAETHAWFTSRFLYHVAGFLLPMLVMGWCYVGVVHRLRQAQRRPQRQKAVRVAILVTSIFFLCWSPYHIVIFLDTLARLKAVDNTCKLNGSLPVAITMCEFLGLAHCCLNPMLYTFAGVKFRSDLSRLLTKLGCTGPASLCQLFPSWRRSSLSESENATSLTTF

EGFR(E746-A750del) = target: T16, EGFR(E746-A750del) (Homo sapiens, UniProt P00533, DEL746-750); experiment: KinomeScan; type: binding; details: read-out: % Control
T16 construct: purchased DiscoveRx (Fremont, CA), KinomeScan service

RIOK3 = target: T17, RIOK3 (Homo sapiens, UniProt O14730); experiment: KinomeScan; type: binding; details: read-out: % Control
T17 construct: purchased DiscoveRx (Fremont, CA)
T17 sequence (O14730 whole entry): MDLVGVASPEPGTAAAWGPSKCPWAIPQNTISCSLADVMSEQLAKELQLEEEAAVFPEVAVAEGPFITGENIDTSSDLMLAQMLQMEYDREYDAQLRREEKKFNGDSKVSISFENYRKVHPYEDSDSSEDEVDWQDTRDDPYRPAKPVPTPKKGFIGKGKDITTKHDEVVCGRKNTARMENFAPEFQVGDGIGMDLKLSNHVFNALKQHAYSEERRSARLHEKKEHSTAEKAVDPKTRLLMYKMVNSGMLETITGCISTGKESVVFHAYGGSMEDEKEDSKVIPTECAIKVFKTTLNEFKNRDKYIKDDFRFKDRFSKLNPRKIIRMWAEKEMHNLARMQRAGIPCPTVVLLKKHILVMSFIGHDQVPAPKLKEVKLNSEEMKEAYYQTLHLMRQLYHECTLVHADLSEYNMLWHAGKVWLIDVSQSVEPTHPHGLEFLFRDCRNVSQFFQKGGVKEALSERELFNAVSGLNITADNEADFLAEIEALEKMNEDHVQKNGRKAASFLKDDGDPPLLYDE

LPS-induced ALI = experiment: LPS-induced acute lung injury; type: in vivo, mice; details: LPS 0.7 mg/kg intratracheally; compounds intraperitoneally
Text: PMN (polymorphonuclear neutrophils).

HEK293 = type: cell-based
Text: FIG. 59A through FIG. 59D: OGM2 causes specific cell death in glioblastoma cells.
Thus, in contrast to erastin, OGM2 induces ferroptosis selectively in cancer cells.

[2] = concentration causing 50% effective inhibition of calcium response to pH 6.4, read-out: EC50

T1 sequence (P23443 whole entry): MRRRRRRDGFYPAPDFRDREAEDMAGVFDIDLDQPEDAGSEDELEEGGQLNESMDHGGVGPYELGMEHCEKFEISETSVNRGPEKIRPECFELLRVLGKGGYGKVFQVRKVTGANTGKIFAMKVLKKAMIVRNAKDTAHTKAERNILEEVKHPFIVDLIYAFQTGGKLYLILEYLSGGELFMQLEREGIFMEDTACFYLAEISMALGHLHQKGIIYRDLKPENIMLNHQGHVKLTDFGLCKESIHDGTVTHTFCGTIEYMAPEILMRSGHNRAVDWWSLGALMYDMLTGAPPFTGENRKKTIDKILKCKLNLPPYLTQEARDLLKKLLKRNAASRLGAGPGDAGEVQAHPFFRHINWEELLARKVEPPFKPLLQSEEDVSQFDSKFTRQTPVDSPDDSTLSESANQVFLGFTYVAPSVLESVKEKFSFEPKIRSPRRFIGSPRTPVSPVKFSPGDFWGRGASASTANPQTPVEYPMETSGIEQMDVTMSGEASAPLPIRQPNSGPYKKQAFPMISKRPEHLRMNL

CCc1ccc2c(c1)C1(NN=C(c3cccc4ccccc34)S1)C(=O)N2 (stereo not drawn) [OGM1, 5-ethyl-5′-naphthalen-1-ylspiro[1H-indole-3,2′-3H-1,3,4-thiadiazole]-2-one]
remaining binding at 10 µM (S6K1): 93%
remaining binding at 10 µM (FGFR4): 100%
remaining binding at 10 µM (LZK): 100%
remaining binding at 10 µM (INK2): 83%
remaining binding at 10 µM (PIK4CB): 71%
remaining binding at 10 µM (CAMK2D): 91%
remaining binding at 10 µM (CSNK1A1L): 100%
remaining binding at 10 µM (PAK4): 66%
remaining binding at 10 µM (PDPK1): 100%
remaining binding at 10 µM (IKK-alpha): 83%
Antagonism (H1; 10 uM): −17.2
Agonism (H1; 12.5 uM): 2.1
remaining binding at 10 µM (MLCK): 100%
Antagonism (V1A; 10 uM): 12.3
Agonism (V1A; 12.5 uM): 0.1
remaining binding at 10 µM (MKNK2): 91%
CS-induced TNF-α mRNA expression [1]: blocked
CS-induced VCAM-1 expression [1]: blocked
Rho activation by 18% cyclic stretch [1]: abolished
EC50 (GPR68/OGR1; Table 5, read-out: GPR68): 160 nM
EC50 (GPR68/OGR1; [2]): 306 nM
reversibility of GPR68 inhibition (GPR68): reversible inhibitor of GPR68
Antagonism (CXCR5; 10 uM): −2
Agonism (CXCR5; 12.5 uM): 0.9
remaining binding at 10 µM (EGFR(E746-A750del)): 100%
remaining binding at 10 µM (RIOK3): 100%

CCc1ccc2c(c1)C1(NN=C(c3ccccc3)S1)C(=O)N2 (stereo not drawn) [OGM2]
inflammatory cell infiltrates in BAL (LPS-induced ALI): reduced inflammatory cell infiltrates in BAL
HEK293 cell viability / survival (HEK293): no effect
CS-induced TNF-α mRNA expression [1]: blocked
CS-induced VCAM-1 expression [1]: blocked
Rho activation by 18% cyclic stretch [1]: abolished
EC50 (GPR68/OGR1; Table 5, read-out: GPR68): 710 nM
EC50 (GPR68/OGR1; [2]): 710 nM
Time till 50% max (GPR68; recovery of GPR68 activity after washout, 10 μM OGM2 for 4 hours, pH 6.4 medium): ~52 min
reversibility of GPR68 inhibition (GPR68): reversible and highly specific inhibitor of GPR68
reversibility of GPR68 inhibition (GPR68; listed as OM8345): reversible inhibition of GPR68
